Measured values from patent publication US12298319B2, “Method for measuring alpha value of muscarinic M1 receptor positive allosteric modulators” (Takeda Pharmaceutical Company Limited, priority 2017, dated 2025).
Structures can show the parent of a compound that is named as a salt.

Columns and labels:
[1] = tested on: layer 5 pyramidal neurons; assay: Electrophysiology, current clamp of layer 5 pyramidal neurons in mPFC slices; type: cell-based, mouse; settings: bath application, Compound D at 10 μM
Protocol: Experiments were performed on coronal brain slices of the medial prefrontal cortex (mPFC) from 4-week-old male C57BL/6 mice. The animals were quickly sacrificed and the brain was placed in an ice-cold NMDG artificial cerebrospinal fluid (ACSF) (in mM): NMDG, 92; KCl, 2.5; CaCl2, 0.5; NaH2PO4, 1.25; MgSO4, 6; NaHCO3, 30; glucose, 25; HEPES, 20; thiourea, 2; Na-ascorbate, 5; and Na-pyruvate, 3) (Ting J. T. et al., Methods Mol Biol. 2014; 1183:221-42). Slices were cut at a thickness of 300 μm with a vibroslicer. Slices were initially transferred to a holding chamber containing NMDG aCSF for 15 minutes at 34° C. Slices were then transferred to a room temperature holding chamber for at least 1 h containing HEPES aCSF (in mM): NMDG, 92; KCl, 2.5; CaCl2, 2; NaH2PO4, 1.25; MgSO4, 2; NaHCO3, 30; glucose, 25; HEPES, 20; thiourea, 2; Na-ascorbate, 5; and Na-pyruvate, 3). Subsequently, the slices were transferred to the recording chamber, in which they were submerged and perfused with aCSF containing the following (in mM): NaCl, 124; KCl, 5; NaH2PO4, 1.2; MgCl2, 1.5; CaCl2, 2.5; glucose, 10; and NaHCO3, 24), at a flow rate of 1-2 ml/min. All buffers were continuously bubbled and saturated with carbogen (95% O2/5% CO2). Current clamp recordings were carried out at 32-33° C. from visually identified pyramidal neurons from layer 5 using a borosilicate pipette (5-7 MΩ) filled with intracellular solution (in mM): K-gluconate, 135; KCl, 4; HEPES, 10; EGTA, 0.2; MgATP, 4; Na2GTP, 0.3; pH 7.3 with KOH). Signals were acquired using a Multiclamp 700B amplifier and a Digidata 1440A interface board (Molecular Devices Japan, Tokyo, Japan), filtered between 2 kHz, sampled at 10 kHz, and analyzed with pClamp10 software.
M1Rs are known to contribute to the three cholinergic effects in layer 5 pyramidal neurons: the resting membrane potential (RMP) and physiological responses such as the after hyperpolarization (AHP) the after depolarization (ADP) that typically follow brief periods of action potential generation (Gulledge et al., J. Neurosci. 2009 Aug. 5; 29(31): 9888-9902). To investigate effects of M1 PAMs with different n value on brain function, cholinergic excitation by Compound D and Compound C were assessed. First, the muscarinic receptor agonist carbachol ([…] for 10 min) was tested by bath application (FIG. 13-A, FIG. 13-B, FIG. 13-C).

[2] = tested on: scopolamine-induced cognitive deficits in rats; assay: Novel object recognition task (NORT), scopolamine-induced memory deficits; type: in vivo, rat
Protocol: On the day before testing, Long Evans rats were allowed to habituate to the behavioral test room environment for over 1 h, and then they were allowed to habituate to the empty test box (a gray-colored polyvinyl chloride box (40×40×50 cm)) for 10 min individually. Testing was comprised of two 3-min trials called the acquisition and the retention trials. These trials were separated by a given inter-trial interval (ITI). On the testing day, in the acquisition trial, rats were allowed to explore two identical objects (A1 and A2) for 3 min. In the retention trial, rats were again allowed to explore a familiar object (A3) and a novel object (B) for 3 min. The object exploration was defined as rats' licking, sniffing or touching the object with limbs while sniffing. Leaning against the object to look upward, standing or sitting on the object was excluded. The exploration time of each object (A1, A2, A3 and B) in each trial was measured manually. Novel discrimination index (NDI) was calculated using the following equation: novel object interaction/total interaction×100(%).
The acquisition and the retention trials were separated by 4 h ITI. […] Scopolamine (0.1 mg/kg) was administered subcutaneously 30 min prior to the acquisition trial.
(§1) The acquisition and the retention trials were separated by 4 h ITI.
as §1

rats = assay: Assessment of cholinergic side effects in rats
Protocol: SD Rats were placed individually into observation cages and acclimated for at least 1 h. […] The severity of diarrhea was scored as follows: 0, normal pellets; 1, wet but formed feces; 2, swollen or mucous feces; 3, severe watery diarrhea. For diarrhea, the number of rats and mice, in which more than or equal to 2 was scored, was counted. For fasciculation, the number of rats with marked fasciculation of both the upper and lower limbs was counted. For lacrimation, the number of rats, in which moderate to marked discharge (severer lacrimation than fluid around eyes) was induced, was counted. For salivation, the number of rats with severe salivation, but not just noticeably wet around mouth, was induced was counted. The maximum score during the observation was adopted.
(§2) For diarrhea, the number of rats scored more than or equal to 2 was counted. For fasciculation, the number of rats with marked fasciculation of both the upper and lower limbs was counted. For lacrimation, the number of rats in which moderate to marked discharge (severer lacrimation than fluid around eyes) was counted. For salivation, the number of rats with severe salivation, but not just noticeably wet around mouth, was counted. The maximum score during the observation was adopted. Data were presented as the number of incidence per total rats.
as §2, with “in which loose” for “scored more than”, “mucous stool, or diarrhea was induced” for “equal to 2”, “(severe” for “(severer”, “eyes) was caused” for “eyes)”, “mouth” for “mouth,”

[3] = carbachol 10 M [sic] for 10 min

C[N+](C)(C)CCOC(N)=O [Carbachol, carbachol]
after hyperpolarization (AHP) [1, 3]: suppressed AHP | resting membrane potential (RMP) [1, 3]: induced depolarization of the RMP | after depolarization (ADP) ([1]; carbachol for 10 min as printed): produced an ADP potential

COc1cc2c(cc1OC)C(=O)C(CC1CCN(Cc3ccccc3)CC1)C2 (stereo not shown) [Donepezil, Donepezil hydrochloride]
NDI in NORT, scopolamine-induced deficits ([2]; 0.3 and 1 mg/kg p.o., rats, P≤0.025): significantly increased NDI | minimal efficacy dose in rats (cognitive improvement) ([2]; NORT, scopolamine-treated rats, p.o.): 0.3 mg/kg | NDI ([2]; scopolamine-treated rats, 0.1 mg/kg p.o. alone, Example 28): 52.7% | NDI ([2]; scopolamine-treated rats, donepezil 0.1 mg/kg p.o. alone, Example 29): 49.5% | cholinergic side effects in addition to diarrhea (rats; 10 mg/kg p.o., rats): induced salivation, myosis, and fasciculation | diarrhea induction in rats (score) (rats; P≤0.025 at 10 and 30 mg/kg p.o.): induced diarrhea dose-dependently

CCN(C)C(=O)Oc1cccc([C@H](C)N(C)C)c1 [Rivastigmine, rivastigmine]
NDI ([2]; scopolamine-treated rats, rivastigmine 0.1 mg/kg i.p. alone, Example 31): 53.9%
